From US20210177814A1, “USE OF GUANABENZ OR DERIVATES THEREOF FOR THE TREATMENT OF TYPE I IFN-DEPENDENT PATHOLOGIES” (INSERM (Institut National de la Santé et de la Recherche …, priority 2018, published 2021)
Entries after “also recorded” stand apart in the source; their conditions may differ.

Molecular target: T1, TLR9 (Mus musculus, UniProt Q9EQU3)
T1 construct: from tissue; host or cells: whole animal: C57BL/6, FVB and FVB GADD34ΔC/ΔC mice
T1 sequence (Q9EQU3 26-1032): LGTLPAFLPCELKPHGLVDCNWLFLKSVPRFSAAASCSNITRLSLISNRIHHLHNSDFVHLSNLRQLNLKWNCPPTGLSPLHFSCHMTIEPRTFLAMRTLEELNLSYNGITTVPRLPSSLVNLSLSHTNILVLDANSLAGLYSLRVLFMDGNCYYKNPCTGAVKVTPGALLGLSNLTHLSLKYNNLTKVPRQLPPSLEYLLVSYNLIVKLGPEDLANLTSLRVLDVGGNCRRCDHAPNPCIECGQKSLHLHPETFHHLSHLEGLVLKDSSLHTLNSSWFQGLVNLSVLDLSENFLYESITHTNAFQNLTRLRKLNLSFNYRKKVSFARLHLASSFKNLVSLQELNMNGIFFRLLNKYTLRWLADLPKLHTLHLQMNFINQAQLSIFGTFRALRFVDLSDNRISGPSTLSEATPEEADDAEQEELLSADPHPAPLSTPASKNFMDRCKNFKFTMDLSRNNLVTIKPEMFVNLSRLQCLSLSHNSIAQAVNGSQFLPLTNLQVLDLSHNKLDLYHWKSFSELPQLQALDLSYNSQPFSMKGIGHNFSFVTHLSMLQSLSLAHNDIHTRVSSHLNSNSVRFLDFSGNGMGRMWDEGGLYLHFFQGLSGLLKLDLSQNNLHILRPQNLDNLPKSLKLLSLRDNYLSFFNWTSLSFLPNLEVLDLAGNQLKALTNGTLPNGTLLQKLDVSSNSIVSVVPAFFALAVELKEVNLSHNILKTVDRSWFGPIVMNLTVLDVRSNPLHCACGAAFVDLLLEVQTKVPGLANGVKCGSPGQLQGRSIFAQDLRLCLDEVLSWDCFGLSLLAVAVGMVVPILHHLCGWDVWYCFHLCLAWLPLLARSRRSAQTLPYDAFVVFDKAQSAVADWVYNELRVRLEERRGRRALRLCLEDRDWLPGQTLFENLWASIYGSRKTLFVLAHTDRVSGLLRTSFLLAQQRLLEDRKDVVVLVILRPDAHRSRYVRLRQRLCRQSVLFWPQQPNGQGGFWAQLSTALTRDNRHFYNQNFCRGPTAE
Assay: Cytokine production and gene expression in sorted Flt3L-DC pDCs activated with CpG ODN 1585
Assay type: cell-based
Experimental: FIG. 1: Guanabenz inhibits TLR3 and TLR9 activation in mouse Flt3-L DCs and human blood pDCs. A) Sorted bone marrow derived Flt3L-DCs were activated for 6 h with 10 μg/mL poly I:C LMW (TLR3 in DC1) or 1 μM ODN 1585 (TLR9 in pDCs). GBZ was added at 50 μM and inhibited IFN-β and Interleukin-6 (IL-6) production in activated cells. B) […], hTLR3, hTLR9 and hTLR7 expressed in the reporter HEK-Blue™ cells are inhibited by GBZ. TLR-expressing HEK-Blue™ cells were respectively activated with 100 ng/mL LPS, 10 μg/mL poly I:C LMW, 2.5 μM ODN 2006 or 5 μg/mL imiquimod, respectively. GBZ was added at 50 μM. TLR activity was measured indirectly through SEAP activity as absorbance at 405 nm. GBZ inhibited human TLR3, TLR7 and TLR9 signaling, but not TLR4._C) Human primary pDCs were isolated from blood and activated either with 3 μM CpG ODN 2216 (top) or with 2% of anti-DNA IgG containing serum from lupus patients (bottom). GBZ was added at 50 μM. Protein concentration of IFN-α and TNF-α secreted were measured at the indicated time points or at 16 h. Statistical significance was assigned using two tailed t-test on at least n=3 independent experiments (* p<0.05; ** p<0.005; ***p<0.0005).
BM-derived DCs were differentiated in vitro from the bone marrow of 6-8 weeks old male mice, using either FLT3 ligand or GM-CSF. Flt3L-DCs were used for experiments between days 6 and 7. Flt3L was produced using B16-Flt3L hybridoma cells. Bone marrow progenitors were plated at 1.5 10^6 cells/ml, 4 ml/well in 6 well plate, and cultivated with RPMI (GIBCO), 10% FCS (Sigma Aldrich), 100 units/ml penicillin and 100 μg/ml streptomycin (GIBCO), 50 μM b-mercaptoethanol (VWR) and Flt3L. For sorted Flt3L-DCs, cells were gently harvested at day 7 with cold PBS 2% FCS, centrifuged 1200 rpm 5 min at 4° C., counted and stained with for 30 mins at 4° C. Cells were sorted with the FACS ARIASorp. Cells were kept on ice all the time. […]
ODN 2006, 2216, 1585 and 1826, Poly I:C High and Low Molecular Weight are from InvivoGen, San Diego, Calif.; lipopolysaccharide (Escherichia coli 055:B5), clonidine, chloroquine, D-(+)-Galactosamine hydrochloride and 25-HC are from Sigma Aldrich; Guanabenz is from Tocris Bioscience. For quantitative PCR, total RNAs were extracted and purified using the RNeasy Mini Kit (Qiagen). […] Each gene transcripts were quantified by SYBR Green method with 7500Fast (Applied Biosystems). The relative amount of each transcript was determined by normalizing to internal housekeeping gene expression.
Mouse IFN-β quantification in culture supernatant was performed using the Mouse Interferon Beta ELISA kit (PBL InterferonSource); mouse IL-6, TNFα, IL-10, human TNFα and human IFNα were quantified using ELISA kit (eBioscience) respectively, according to manufacturer instructions. […]

[1] = sorted pDCs, 1 μM ODN 1585 6 h, GBZ 50 μM

Compound: NC(N)=N/N=C/c1c(Cl)cccc1Cl [GBZ, 2-(2,6-dichlorobenzylidene)-hydrazinecarboximidamide]
- transcriptional response to CpG ODN (ifna4, Tnfa, isg15, Il12 by qPCR) (pDC, data not shown): inhibited completely
- impact on cell fitness (sorted cDC1 and pDCs treated with GBZ): without any impact
- IFN-β production [1]: nearly abrogated; also recorded: inhibited
- IL-6 production [1]: nearly abrogated; also recorded: inhibited
